These results are taken from ChEMBL document CHEMBL1933004, “Novel (S)-1,2,3,4-tetrahydroisoquinoline-3-carboxylic acids: peroxisome proliferator-activated receptor γ selective agonists with protein-tyrosine phosphatase 1B inhibition” (Bioorg Med Chem, 2012).

In assay [1] the target is T1, Tyrosine-protein phosphatase non-receptor type 1 (Homo sapiens, UniProt P18031).
T1 sequence (P18031 whole entry): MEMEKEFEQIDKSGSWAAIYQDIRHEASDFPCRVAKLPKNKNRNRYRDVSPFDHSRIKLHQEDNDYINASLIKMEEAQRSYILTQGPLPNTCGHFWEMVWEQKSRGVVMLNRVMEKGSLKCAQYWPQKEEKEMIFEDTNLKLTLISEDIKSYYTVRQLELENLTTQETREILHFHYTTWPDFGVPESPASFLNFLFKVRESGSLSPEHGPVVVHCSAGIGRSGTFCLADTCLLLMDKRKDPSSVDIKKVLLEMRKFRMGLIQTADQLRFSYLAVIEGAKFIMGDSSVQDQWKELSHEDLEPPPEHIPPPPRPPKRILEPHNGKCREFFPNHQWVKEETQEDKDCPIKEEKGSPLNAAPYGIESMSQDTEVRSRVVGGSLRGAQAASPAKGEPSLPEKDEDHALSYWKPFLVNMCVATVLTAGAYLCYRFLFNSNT
Nature of the assay: Inhibition of PTB1B using pNPP as substrate after 30 mins.

In assay [2] the target is T2, Peroxisome proliferator-activated receptor alpha (Homo sapiens) (UniProt Q07869).
T2 sequence (whole entry): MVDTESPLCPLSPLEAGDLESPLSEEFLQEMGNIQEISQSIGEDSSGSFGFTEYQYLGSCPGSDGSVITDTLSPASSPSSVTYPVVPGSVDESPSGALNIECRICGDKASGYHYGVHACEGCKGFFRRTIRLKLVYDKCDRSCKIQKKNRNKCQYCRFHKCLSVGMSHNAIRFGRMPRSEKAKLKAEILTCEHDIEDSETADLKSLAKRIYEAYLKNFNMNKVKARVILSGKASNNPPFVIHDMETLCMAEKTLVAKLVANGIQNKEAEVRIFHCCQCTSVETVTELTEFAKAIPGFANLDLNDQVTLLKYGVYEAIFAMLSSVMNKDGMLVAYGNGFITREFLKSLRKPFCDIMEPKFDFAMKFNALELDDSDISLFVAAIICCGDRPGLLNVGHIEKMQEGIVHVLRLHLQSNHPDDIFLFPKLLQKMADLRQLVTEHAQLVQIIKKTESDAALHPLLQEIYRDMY
Briefly: Transactivation of human full length PPARalpha expressed in COS1 cells co-transfected with RXRalpha after 24 hrs by luciferase reporter gene assay relative to WY14643. In kind it is cell-based. Conditions: COS-1. A general note: Reporter assays use an easily measured gene product as a stand-in for the process of interest.

Assay [3] deals with T3, Peroxisome proliferator-activated receptor gamma (Homo sapiens, UniProt P37231).
T3 sequence (P37231 whole entry): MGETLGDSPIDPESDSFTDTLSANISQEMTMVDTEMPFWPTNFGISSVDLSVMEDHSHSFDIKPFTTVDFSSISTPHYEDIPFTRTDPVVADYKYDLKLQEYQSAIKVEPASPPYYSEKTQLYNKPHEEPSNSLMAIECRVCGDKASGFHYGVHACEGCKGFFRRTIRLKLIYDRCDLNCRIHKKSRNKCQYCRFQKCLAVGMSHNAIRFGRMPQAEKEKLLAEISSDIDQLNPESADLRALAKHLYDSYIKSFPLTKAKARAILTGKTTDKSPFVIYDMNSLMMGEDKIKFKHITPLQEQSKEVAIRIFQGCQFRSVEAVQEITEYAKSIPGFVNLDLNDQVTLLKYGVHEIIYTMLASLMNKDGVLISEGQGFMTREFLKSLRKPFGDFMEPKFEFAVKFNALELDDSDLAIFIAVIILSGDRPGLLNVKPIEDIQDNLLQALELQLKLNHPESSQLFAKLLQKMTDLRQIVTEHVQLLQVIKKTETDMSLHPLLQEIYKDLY
Briefly: Transactivation of human full length PPARgamma expressed in COS1 cells co-transfected with RXRalpha after 24 hrs by luciferase reporter gene assay. Type of assay: cell-based, COS-1.

In assay [4] the target is T4, Peroxisome proliferator-activated receptor gamma (Homo sapiens) (UniProt P37231).
T4 sequence (whole entry): T3 sequence (P37231 whole entry)
Briefly: Transactivation of human full length PPARgamma expressed in COS1 cells co-transfected with RXRalpha after 24 hrs by luciferase reporter gene assay relative to farglitazar. Type of assay: cell-based. The note with it: COS-1.

In the next assay the test system is Mus musculus. Briefly: Hypoglycemic activity in diabetic KK-Ay mouse model assessed as decrease in glucose level at 10 mg/kg, po qd for 4 days relative to untreated control. Type of assay: functional. The arrangement: scale not given: the % may be the effect or the level left.
For assay [5], the target named is T5, Peroxisome proliferator-activated receptor alpha (Homo sapiens, UniProt Q07869).
T5 sequence (Q07869 whole entry): T2 sequence (whole entry)
Briefly: Transactivation of human full length PPARalpha expressed in COS1 cells co-transfected with RXRalpha after 24 hrs by luciferase reporter gene assay. In kind it is cell-based, COS-1.

The IC50 is the point on the concentration scale where inhibition reaches its midpoint. A word on the EC50: it is the midpoint of the concentration-response curve. In assay [1], `C/C=C/C=C/C(=O)N1Cc2cc(OCCc3nc(CCCCC(C)C)oc3C)ccc2C[C@H]1C(=O)O.CC(C)(C)N` showed an IC50 of 1.15 µM. Also, the Emax in assay [2] was < 50%; in assay [4], 89%. A half-maximal effect in assay [3] (EC50) was put at 0.11 µM. The Activity in the assay with Mus musculus turned out to be 17%.
On to `C/C=C/C=C/C(=O)N1Cc2cc(OCCc3nc(/C=C/C(CC)CC)oc3C)ccc2C[C@H]1C(=O)O.CC(C)(C)N`, for which, in assay [1], the IC50 worked out at 1.3 µM. Also, the results for the Emax in assay [2] and in assay [4] were 66% and 90%, respectively. The compound further yielded an EC50 in assay [3] of 0.76 µM. Further, the Activity in the assay on Mus musculus is given as 18%.
In the same order, the values of `C/C=C/C=C/C(=O)N1Cc2cc(OCCc3nc(/C=C/C(C)(C)C)oc3C)ccc2C[C@H]1C(=O)O.CC(C)(C)N` are 2.25 µM, < 50%, 97%, 0.54 µM and 23%.
The matching figures for `CC(C)(C)N.CCO/C=C/C(=O)N1Cc2cc(OCCc3nc(/C=C/CCC(C)C)oc3C)ccc2C[C@H]1C(=O)O`: 2.55 µM, < 50%, 101%, 0.02 µM and 33%.
Consider `CC(C)(C)N.CCC/C=C/C(=O)N1Cc2cc(OCCc3nc(/C=C/CCC(C)C)oc3C)ccc2C[C@H]1C(=O)O`, for which the IC50 in assay [1] came to 1.18 µM. Besides, the Emax in assay [2] is < 50%; in assay [4] it was 96%. Besides, the EC50 in assay [3] was found to be 0.03 µM. In addition, the Activity with Mus musculus came to 50%.
On to `C/C=C/C=C/C(=O)N1Cc2cc(OCCc3nc(/C=C/CC(C)C)oc3C)ccc2C[C@H]1C(=O)O.CC(C)(C)N`, for which, in assay [1], half-maximal inhibition (IC50) required 2 µM. Further, the figures for the Emax in assay [2] and in assay [4] were 81% and 103%, respectively. The EC50 in assay [3] is 0.16 µM; in assay [5], 0.24 µM. The Activity in the assay on Mus musculus stood at 58%.
`C/C=C/C=C/C(=O)N1Cc2cc(OCCc3nc(/C=C/C(C)CCC)oc3C)ccc2C[C@H]1C(=O)O.CC(C)(C)N` (some centres not stated) returned an IC50 in assay [1] of 1.41 µM. The Emax in assay [2] is < 50%; in assay [4], 82%. In assay [3], this compound displayed an EC50 of 0.31 µM. In addition, the Activity in the assay on Mus musculus turned out to be 71%.
As to `C/C=C/C=C/C(=O)N1Cc2cc(OCCc3nc(/C=C/C(C)(C)CC)oc3C)ccc2C[C@H]1C(=O)O.CC(C)(C)N`, half-maximal inhibition in assay [1] (IC50) was put at 1.2 µM. The figures for the Emax in assay [2] and in assay [4] were < 50% and 77%, respectively. In addition, in assay [3], the EC50 was 0.76 µM. In addition, in the assay with Mus musculus, the Activity is listed as 16%.
The matching figures for `C=CCCC(=O)N1Cc2cc(OCCc3nc(/C=C/CCC(C)C)oc3C)ccc2C[C@H]1C(=O)O.CC(C)(C)N`: 1.69 µM, < 50%, 105%, 0.04 µM and 45%.
`C/C=C/C=C/C(=O)N1Cc2cc(OCCc3nc(/C=C/C(C)C)oc3C)ccc2C[C@H]1C(=O)O.CC(C)(C)N` yielded an IC50 in assay [1] of 2.2 µM. Further, the values for the Emax in assay [2] and in assay [4] were 62% and 104%, respectively. For the same compound, the EC50 in assay [3] came out at 0.67 µM; in assay [5] it was 0.3 µM. For the same compound, the Activity in the assay on Mus musculus came out at 38%.
In turn, `C/C=C/C=C/C(=O)N1Cc2cc(OCCc3nc(/C=C/CC(C)(C)C)oc3C)ccc2C[C@H]1C(=O)O.CC(C)(C)N` yielded an IC50 in assay [1] of 1.95 µM. In addition, the values for the Emax in assay [2] and in assay [4] were < 50% and 92%, respectively. Also, in assay [3], the EC50 is 0.16 µM. For the same compound, in the assay on Mus musculus, the Activity was found to be 39%.
In the case of `C/C=C/C=C/C(=O)N1Cc2cc(OCCc3nc(/C(=C/C)CC)oc3C)ccc2C[C@H]1C(=O)O.CC(C)(C)N`, inhibition in assay [1] was half-maximal at 5.6 µM (IC50). In addition, the values for the Emax in assay [2] and in assay [4] were < 50% and 91%, respectively. In addition, in assay [3], the EC50 was determined as 0.35 µM. Besides, the Activity with Mus musculus amounted to 47%.
In the same order, the values of `C/C=C/C=C/C(=O)N1Cc2cc(OCCc3nc(/C(C)=C/CC)oc3C)ccc2C[C@H]1C(=O)O.CC(C)(C)N` are 4.4 µM, < 50%, 96%, 0.12 µM and 40%.
The matching figures for `C=CCCCC(=O)N1Cc2cc(OCCc3nc(/C=C/CCC(C)C)oc3C)ccc2C[C@H]1C(=O)O.CC(C)(C)N`: 1.43 µM, < 50%, 106%, 0.05 µM and 22%.
On to `CC(C)(C)N.CCOCCC(=O)N1Cc2cc(OCCc3nc(/C=C/CCC(C)C)oc3C)ccc2C[C@H]1C(=O)O`, for which, in assay [1], half-maximal inhibition (IC50) was put at 3.35 µM. Besides, the Emax was < 50% in assay [2] and 86% in assay [4]. Further, in assay [3], the response was half-maximal at 0.07 µM (EC50). The Activity with Mus musculus is -13%.
On to `CC(C)(C)N.Cc1oc(/C=C/CCC(C)C)nc1CCOc1ccc2c(c1)CN(C(=O)/C=C/C1CC1)[C@H](C(=O)O)C2`, for which the IC50 in assay [1] stood at 1.05 µM. Besides, the Emax is < 50% in assay [2] and 84% in assay [4]. Moreover, the EC50 in assay [3] worked out at 0.07 µM. In addition, the Activity in the assay with Mus musculus came to 27%.
The compound `CC(C)(C)N.CC(C)=C/C=C/C(=O)N1Cc2cc(OCCc3nc(/C=C/CCC(C)C)oc3C)ccc2C[C@H]1C(=O)O` came in with an IC50 in assay [1] of 0.95 µM. For the same compound, the Emax came out at 64% in assay [2] and 85% in assay [4]. Moreover, the EC50 in assay [3] was 0.03 µM; in assay [5], 0.1 µM. Besides, the Activity with Mus musculus is recorded as 44%.
As to `CC(C)(C)N.CCOC/C=C/C(=O)N1Cc2cc(OCCc3nc(/C=C/CCC(C)C)oc3C)ccc2C[C@H]1C(=O)O`, the IC50 in assay [1] turned out to be 3.8 µM. The Emax in assay [2] is < 50%; in assay [4] it was 108%. The compound further gave an EC50 in assay [3] of 0.09 µM. Also, the Activity with Mus musculus turned out to be 3%.
In the same order, the values of `CC(C)(C)N.Cc1oc(/C=C/CCC(C)C)nc1CCOc1ccc2c(c1)CN(C(=O)/C=C/c1ccco1)[C@H](C(=O)O)C2` are 0.57 µM, < 50%, 102%, 0.07 µM and 29%.
In assay [1], `CC(C)(C)N.CCC(O)/C=C/C(=O)N1Cc2cc(OCCc3nc(/C=C/CCC(C)C)oc3C)ccc2C[C@H]1C(=O)O` (some centres not stated) yielded an IC50 of 6.2 µM. Besides, the Emax in assay [2] is < 50%; in assay [4], 104%. Besides, the midpoint of the response in assay [3], the EC50, lay at 0.24 µM. The Activity with Mus musculus is on record as 19%.
As to `CC(C)(C)N.Cc1oc(/C=C/CCC(C)C)nc1CCOc1ccc2c(c1)CN(C(=O)/C=C/c1cccs1)[C@H](C(=O)O)C2`, in assay [1], half-maximal inhibition (IC50) was put at 1.05 µM. For the same compound, the Emax was < 50% in assay [2] and 99% in assay [4]. Moreover, the EC50 in assay [3] came out at 0.04 µM. Besides, the Activity in the assay on Mus musculus is given as 45%.
Take `C/C=C/C=C(\C)C(=O)N1Cc2cc(OCCc3nc(/C=C/CCC(C)C)oc3C)ccc2C[C@H]1C(=O)O.CC(C)(C)N`: the IC50 in assay [1] worked out at 2.03 µM. Also, the Emax was < 50% in assay [2] and 98% in assay [4]. The same compound returned an EC50 in assay [3] of 0.05 µM. Further, the Activity in the assay with Mus musculus was 21%.
The compound `CC(C)(C)N.CCCCCC(=O)N1Cc2cc(OCCc3nc(/C=C/CCC(C)C)oc3C)ccc2C[C@H]1C(=O)O` registered an IC50 in assay [1] of 0.94 µM. In addition, the Emax is < 50% in assay [2] and 94% in assay [4]. Also, in assay [3], the EC50 was found to be 0.02 µM. Besides, the Activity in the assay on Mus musculus was determined as 30%.
As for `CC(C)(C)N.Cc1oc(/C=C/CCC(C)C)nc1CCOc1ccc2c(c1)CN(C(=O)/C=C/C=C/CO)[C@H](C(=O)O)C2`, the IC50 in assay [1] stood at 3.2 µM. For the same compound, the results for the Emax in assay [2] and in assay [4] were < 50% and 61%, respectively. Moreover, the Activity in the assay on Mus musculus was 14%.
